From US12258328B2, “6-membered heteroaryl-containing aminopyridine compounds as EGFR inhibitors” (YUHAN CORPORATION, priority 2021, dated 2025)

Key:
[1] = molecular target: EGFR del19/T790M/C797S (Homo sapiens, UniProt P00533, C797S/DEL746-750/T790M); experiment: Biochemical EGFR kinase assay (Lance Ultra TR-FRET), triple mutant del19/T790M/C797S; conditions: ATP at Km; read-out: IC50 del19/T790M/C797S, Km ATP
Outline: (§1)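 Kinase activity is measured by TR-FRET phosphopeptide detection. Compounds span 0.003 μM to 10 μM; the 1 h reaction at room temperature is quenched with EDTA, then labelled antibody (2 nM) is incubated 60 min before reading.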

[2] = molecular target: EGFR L858R/T790M/C797S (Homo sapiens, UniProt P00533, C797S/L858R/T790M); experiment: Biochemical EGFR kinase assay (Lance Ultra TR-FRET), triple mutant L858R/T790M/C797S; conditions: ATP at Km; read-out: IC50 L858R/T790M/C797S, Km ATP
Outline: as §1

[3] = molecular target: EGFR del19/C797S (Homo sapiens, UniProt P00533, C797S/DEL746-750); experiment: Biochemical EGFR kinase assay (Lance Ultra TR-FRET), double mutant del19/C797S; conditions: ATP at Km; read-out: IC50 del19/C797S, Km ATP
Chain of EGFR del19/C797S (P00533 with tags, fused parts or gaps DEL746-750/C797S): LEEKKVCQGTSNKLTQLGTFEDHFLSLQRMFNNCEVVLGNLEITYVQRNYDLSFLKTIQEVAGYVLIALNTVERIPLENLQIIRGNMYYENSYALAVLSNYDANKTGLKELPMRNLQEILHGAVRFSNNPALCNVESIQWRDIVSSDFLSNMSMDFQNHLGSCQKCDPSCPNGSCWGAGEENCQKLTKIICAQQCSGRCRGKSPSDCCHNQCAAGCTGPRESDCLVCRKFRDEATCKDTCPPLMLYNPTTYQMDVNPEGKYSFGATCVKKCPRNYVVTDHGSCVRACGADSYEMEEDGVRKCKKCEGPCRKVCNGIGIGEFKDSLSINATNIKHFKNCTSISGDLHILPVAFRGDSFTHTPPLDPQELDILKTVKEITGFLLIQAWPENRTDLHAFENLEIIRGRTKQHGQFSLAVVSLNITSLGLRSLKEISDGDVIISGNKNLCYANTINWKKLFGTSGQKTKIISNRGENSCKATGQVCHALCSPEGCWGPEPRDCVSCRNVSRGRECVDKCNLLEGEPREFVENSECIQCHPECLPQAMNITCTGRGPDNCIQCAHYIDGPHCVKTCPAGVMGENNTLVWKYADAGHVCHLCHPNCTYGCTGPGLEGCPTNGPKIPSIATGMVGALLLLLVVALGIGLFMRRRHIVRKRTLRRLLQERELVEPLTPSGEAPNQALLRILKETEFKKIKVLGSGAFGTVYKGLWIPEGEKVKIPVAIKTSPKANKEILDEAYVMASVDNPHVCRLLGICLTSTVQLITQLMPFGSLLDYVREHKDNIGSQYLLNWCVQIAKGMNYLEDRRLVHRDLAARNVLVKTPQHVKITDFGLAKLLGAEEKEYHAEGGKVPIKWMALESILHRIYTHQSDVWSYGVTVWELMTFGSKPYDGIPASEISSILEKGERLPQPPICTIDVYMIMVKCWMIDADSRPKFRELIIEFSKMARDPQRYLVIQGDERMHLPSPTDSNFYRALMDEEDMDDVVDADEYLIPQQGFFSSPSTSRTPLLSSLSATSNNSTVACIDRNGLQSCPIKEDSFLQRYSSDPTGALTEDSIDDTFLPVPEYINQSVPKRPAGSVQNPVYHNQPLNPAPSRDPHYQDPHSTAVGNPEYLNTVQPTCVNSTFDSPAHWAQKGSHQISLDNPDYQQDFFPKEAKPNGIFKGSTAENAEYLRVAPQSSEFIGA
Outline: as §1

[4] = molecular target: EGFR L858R/C797S (Homo sapiens, UniProt P00533, C797S/L858R); experiment: Biochemical EGFR kinase assay (Lance Ultra TR-FRET), double mutant L858R/C797S; conditions: ATP at Km; read-out: IC50 L858R/C797S, Km ATP
Chain of EGFR L858R/C797S (P00533 25-1210 C797S/L858R): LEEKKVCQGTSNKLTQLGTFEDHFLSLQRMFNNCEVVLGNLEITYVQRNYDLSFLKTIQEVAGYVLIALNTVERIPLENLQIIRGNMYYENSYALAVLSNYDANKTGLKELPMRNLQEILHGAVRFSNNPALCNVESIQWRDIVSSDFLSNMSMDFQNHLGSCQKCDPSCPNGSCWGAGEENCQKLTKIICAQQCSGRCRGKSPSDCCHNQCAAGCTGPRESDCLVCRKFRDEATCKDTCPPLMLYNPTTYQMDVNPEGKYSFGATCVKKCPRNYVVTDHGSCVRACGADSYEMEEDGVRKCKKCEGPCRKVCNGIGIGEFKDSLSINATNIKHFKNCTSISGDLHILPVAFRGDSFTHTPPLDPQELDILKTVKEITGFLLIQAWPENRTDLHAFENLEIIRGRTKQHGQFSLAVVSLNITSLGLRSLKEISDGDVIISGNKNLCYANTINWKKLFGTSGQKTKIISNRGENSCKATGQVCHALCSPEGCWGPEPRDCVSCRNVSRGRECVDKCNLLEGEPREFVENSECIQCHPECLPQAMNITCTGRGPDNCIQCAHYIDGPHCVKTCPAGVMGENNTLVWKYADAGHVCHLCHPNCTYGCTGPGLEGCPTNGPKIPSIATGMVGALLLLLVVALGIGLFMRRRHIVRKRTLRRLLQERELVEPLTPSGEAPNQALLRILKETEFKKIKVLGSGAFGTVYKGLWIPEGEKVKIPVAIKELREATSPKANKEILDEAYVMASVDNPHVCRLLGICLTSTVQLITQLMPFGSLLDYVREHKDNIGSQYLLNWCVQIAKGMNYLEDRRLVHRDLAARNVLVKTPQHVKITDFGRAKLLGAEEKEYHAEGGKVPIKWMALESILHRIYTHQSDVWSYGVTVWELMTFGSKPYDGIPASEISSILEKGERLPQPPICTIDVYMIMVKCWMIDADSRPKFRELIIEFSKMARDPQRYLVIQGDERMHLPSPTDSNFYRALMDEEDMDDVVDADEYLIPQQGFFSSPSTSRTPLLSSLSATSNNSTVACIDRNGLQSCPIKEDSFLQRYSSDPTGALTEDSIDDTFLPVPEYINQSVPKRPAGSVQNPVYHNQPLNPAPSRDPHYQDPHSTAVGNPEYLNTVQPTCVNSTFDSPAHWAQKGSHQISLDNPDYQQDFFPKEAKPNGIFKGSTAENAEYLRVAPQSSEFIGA
Outline: as §1

[5] = molecular target: EGFR wildtype (Homo sapiens, UniProt P00533); experiment: Biochemical EGFR kinase assay (Lance Ultra TR-FRET), wildtype; conditions: ATP at Km; read-out: IC50 WT, Km ATP
Chain of EGFR wildtype (P00533 25-1210): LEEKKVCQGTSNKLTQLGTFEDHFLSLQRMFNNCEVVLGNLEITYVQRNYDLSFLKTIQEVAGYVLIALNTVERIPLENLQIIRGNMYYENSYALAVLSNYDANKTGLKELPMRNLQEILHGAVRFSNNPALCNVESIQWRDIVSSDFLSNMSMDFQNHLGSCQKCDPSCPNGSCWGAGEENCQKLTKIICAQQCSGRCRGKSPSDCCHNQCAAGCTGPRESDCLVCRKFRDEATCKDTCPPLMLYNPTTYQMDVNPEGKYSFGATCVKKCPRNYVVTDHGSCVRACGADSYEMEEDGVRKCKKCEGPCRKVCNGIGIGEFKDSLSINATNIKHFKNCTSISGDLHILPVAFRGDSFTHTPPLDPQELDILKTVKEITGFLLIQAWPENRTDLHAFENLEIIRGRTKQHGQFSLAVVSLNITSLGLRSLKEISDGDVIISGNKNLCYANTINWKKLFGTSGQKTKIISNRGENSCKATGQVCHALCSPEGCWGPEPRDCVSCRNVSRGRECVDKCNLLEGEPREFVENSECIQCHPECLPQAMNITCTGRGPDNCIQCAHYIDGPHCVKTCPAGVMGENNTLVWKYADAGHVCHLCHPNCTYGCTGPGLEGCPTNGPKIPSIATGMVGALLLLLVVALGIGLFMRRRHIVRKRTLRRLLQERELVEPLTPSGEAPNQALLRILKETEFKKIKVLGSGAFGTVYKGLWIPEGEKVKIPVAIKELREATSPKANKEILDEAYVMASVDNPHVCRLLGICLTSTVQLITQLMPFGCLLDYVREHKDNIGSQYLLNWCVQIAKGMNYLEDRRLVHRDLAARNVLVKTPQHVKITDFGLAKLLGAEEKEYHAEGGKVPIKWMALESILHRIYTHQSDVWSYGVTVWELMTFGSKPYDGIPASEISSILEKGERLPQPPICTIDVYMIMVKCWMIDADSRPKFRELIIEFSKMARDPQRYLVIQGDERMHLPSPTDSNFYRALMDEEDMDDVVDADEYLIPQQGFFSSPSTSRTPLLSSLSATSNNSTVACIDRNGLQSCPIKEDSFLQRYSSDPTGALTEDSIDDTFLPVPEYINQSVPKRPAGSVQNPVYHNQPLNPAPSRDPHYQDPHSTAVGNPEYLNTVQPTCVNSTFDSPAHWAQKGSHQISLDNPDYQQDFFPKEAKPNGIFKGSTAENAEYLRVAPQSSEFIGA
Outline: as §1

Chain of EGFR del19/T790M/C797S (P00533 with tags, fused parts or gaps DEL746-750/T790M/C797S): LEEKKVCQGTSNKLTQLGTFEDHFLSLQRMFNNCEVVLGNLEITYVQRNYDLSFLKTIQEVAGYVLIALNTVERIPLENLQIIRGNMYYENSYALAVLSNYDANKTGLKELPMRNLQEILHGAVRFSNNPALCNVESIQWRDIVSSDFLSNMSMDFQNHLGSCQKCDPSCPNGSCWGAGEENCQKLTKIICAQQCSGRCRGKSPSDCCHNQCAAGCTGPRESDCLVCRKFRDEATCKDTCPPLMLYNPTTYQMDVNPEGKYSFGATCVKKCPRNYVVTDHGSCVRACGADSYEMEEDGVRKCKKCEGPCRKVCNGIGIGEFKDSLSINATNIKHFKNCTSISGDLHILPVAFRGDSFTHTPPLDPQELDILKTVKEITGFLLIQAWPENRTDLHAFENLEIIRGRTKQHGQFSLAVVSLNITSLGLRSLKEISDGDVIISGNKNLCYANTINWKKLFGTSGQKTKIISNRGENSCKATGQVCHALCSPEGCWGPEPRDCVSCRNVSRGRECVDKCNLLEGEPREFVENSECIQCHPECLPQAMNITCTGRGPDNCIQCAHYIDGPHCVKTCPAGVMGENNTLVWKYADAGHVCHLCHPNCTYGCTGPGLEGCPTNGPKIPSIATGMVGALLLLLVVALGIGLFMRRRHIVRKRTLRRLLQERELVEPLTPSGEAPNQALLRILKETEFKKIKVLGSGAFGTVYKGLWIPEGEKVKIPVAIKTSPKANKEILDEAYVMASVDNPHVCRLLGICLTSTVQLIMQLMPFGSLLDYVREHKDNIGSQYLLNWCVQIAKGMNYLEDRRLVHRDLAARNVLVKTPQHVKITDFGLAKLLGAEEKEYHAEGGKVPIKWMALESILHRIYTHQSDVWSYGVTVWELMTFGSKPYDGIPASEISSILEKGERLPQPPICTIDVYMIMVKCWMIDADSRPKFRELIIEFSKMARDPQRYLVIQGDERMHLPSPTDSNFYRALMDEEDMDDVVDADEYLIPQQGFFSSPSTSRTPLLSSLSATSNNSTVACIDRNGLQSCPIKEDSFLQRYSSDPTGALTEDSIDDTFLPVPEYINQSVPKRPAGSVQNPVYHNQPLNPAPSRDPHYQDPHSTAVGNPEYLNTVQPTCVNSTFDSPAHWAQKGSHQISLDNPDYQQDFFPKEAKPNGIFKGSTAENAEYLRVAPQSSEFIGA

## CN1CCC(Oc2ccc(-c3cnc(Nc4ccnc(-c5cnn(S(=O)(=O)C6CC6)c5)n4)cc3N[C@H]3CC[C@@H](CO)CC3)nc2)CC1 [Example 251, ((1s,4s)-4-((6′-((2-(1-(Cyclopropylsulfonyl)-1H-pyrazol-4-yl)pyrimidin-4-yl)amino)-5-((1-methylpiperidin-4-yl)oxy)-[2,3′-bipyridin]-4′-yl)amino)cyclohexyl)methanol]
[1]
  IC50: 0.5 nM
[2]
  IC50: 0.1 nM
[3]
  IC50: 0.2 nM
[4]
  IC50: 0.3 nM
[5]
  IC50: 0.2 nM

## CN1CCC(Oc2ccc(-c3cnc(Nc4ccnc(-c5cnn(S(=O)(=O)C6CC6)c5)n4)cc3N[C@H]3CCC[C@H](CO)C3)nc2)CC1 [Example 253, ((1S,3S)-3-((6′-((2-(1-(Cyclopropylsulfonyl)-1H-pyrazol-4-yl)pyrimidin-4-yl)amino)-5-((1-methylpiperidin-4-yl)oxy)-[2,3′-bipyridin]-4′-yl)amino)cyclohexyl)methanol]
[1]
  IC50: 0.7 nM
[2]
  IC50: 0.4 nM
[3]
  IC50: 0.4 nM
[4]
  IC50: 0.2 nM
[5]
  IC50: 1 nM

## CN1CCC(Oc2ccc(-c3cnc(Nc4ccnc(-c5cnn(S(=O)(=O)C6CC6)c5)n4)cc3NC3CCC(F)CC3)nc2)CC1 (stereo not shown) [Example 254, N^6′-(2-(1-(Cyclopropylsulfonyl)-1H-pyrazol-4-yl)pyrimidin-4-yl)-N^4′-(4-fluorocyclohexyl)-5-((1-methylpiperidin-4-yl)oxy)-[2,3′-bipyridine]-4′,6′-diamine]
[1]
  IC50: 0.04 nM
[2]
  IC50: 0.02 nM
[3]
  IC50: 0.1 nM
[4]
  IC50: 0.4 nM
[5]
  IC50: 0.7 nM

## CN1CCC(Oc2ccc(-c3cnc(Nc4ccnc(-c5cnn(S(=O)(=O)C6CC6)c5)n4)cc3NC3CCC(F)(F)CC3)nc2)CC1 [Example 255, N^6′-(2-(1-(Cyclopropylsulfonyl)-1H-pyrazol-4-yl)pyrimidin-4-yl)-N^4′-(4,4-difluorocyclohexyl)-5-((1-methylpiperidin-4-yl)oxy)-[2,3′-bipyridine]-4′,6′-diamine]
[1]
  IC50: 0.1 nM
[2]
  IC50: 0.03 nM
[3]
  IC50: 0.5 nM
[4]
  IC50: 0.02 nM
[5]
  IC50: 1.9 nM

## CN1CCC(Oc2ccc(-c3cnc(Nc4ccnc(-c5cnn(S(=O)(=O)C6CC6)c5)n4)cc3NC3CCN(CCF)CC3)nc2)CC1 [Example 256, N^6′-(2-(1-(Cyclopropylsulfonyl)-1H-pyrazol-4-yl)pyrimidin-4-yl)-N^4′-(1-(2-fluoroethyl)piperidin-4-yl)-5-((1-methylpiperidin-4-yl)oxy)-[2,3′-bipyridine]-4′,6′-diamine]
[1]
  IC50: 0.1 nM
[2]
  IC50: 0.1 nM
[3]
  IC50: 3.8 nM
[4]
  IC50: 0.6 nM
[5]
  IC50: 61.6 nM

## CN1CCC(Oc2ccc(-c3cnc(Nc4ccnc(-c5cnn(S(=O)(=O)C6CC6)c5)n4)cc3NC3CCCN(CCF)C3)nc2)CC1 (stereo not shown) [Example 257, N^6′-(2-(1-(Cyclopropylsulfonyl)-1H-pyrazol-4-yl)pyrimidin-4-yl)-N^4′-(1-(2-fluoroethyl)piperidin-3-yl)-5-((1-methylpiperidin-4-yl)oxy)-[2,3′-bipyridine]-4′,6′-diamine]
[1]
  IC50: 0.4 nM
[2]
  IC50: 0.2 nM
[3]
  IC50: 1 nM
[4]
  IC50: 0.4 nM
[5]
  IC50: 7.4 nM

## CN1CCC(Oc2ccc(-c3cnc(Nc4ccnc(-c5cnn(S(=O)(=O)C6CC6)c5)n4)cc3NC3CCN(CC(F)F)CC3)nc2)CC1 [Example 258, N^6′-(2-(1-(Cyclopropylsulfonyl)-1H-pyrazol-4-yl)pyrimidin-4-yl)-N^4′-(1-(2,2-difluoroethyl)piperidin-4-yl)-5-((1-methylpiperidin-4-yl)oxy)-[2,3′-bipyridine]-4′,6′-diamine]
[1]
  IC50: 0.2 nM
[2]
  IC50: 0.1 nM
[3]
  IC50: 0.7 nM
[4]
  IC50: 0.1 nM
[5]
  IC50: 14.1 nM

## CN1CCC(Oc2ccc(-c3cnc(Nc4ccnc(-c5cnn(S(=O)(=O)C6CC6)c5)n4)cc3NC3CCC(F)(CO)CC3)nc2)CC1 (stereo not shown) [Example 259, (4-((6′-((2-(1-(Cyclopropylsulfonyl)-1H-pyrazol-4-yl)pyrimidin-4-yl)amino)-5-((1-methylpiperidin-4-yl)oxy)-[2,3′-bipyridin]-4′-yl)amino)-1-fluorocyclohexyl)methanol]
[1]
  IC50: 1 nM
[2]
  IC50: 0.4 nM
[3]
  IC50: 1.9 nM
[4]
  IC50: 0.2 nM
[5]
  IC50: 9 nM

## COC(c1ccc(-c2cnc(Nc3ccnc(-c4cnn(S(=O)(=O)C5CC5)c4)n3)cc2NC2CCC(C)(O)CC2)nc1)C(F)(F)F (stereo not shown) [Example 260, (1s,4s)-4-((6′-((2-(1-(Cyclopropylsulfonyl)-1H-pyrazol-4-yl)pyrimidin-4-yl)amino)-5-(2,2,2-trifluoro-1-methoxyethyl)-[2,3′-bipyridin]-4′-yl)amino)-1-methylcyclohexan-1-ol]
[1]
  IC50: 6.9 nM
[2]
  IC50: 4.1 nM
[3]
  IC50: 10.7 nM
[4]
  IC50: 8.8 nM
[5]
  IC50: 7.8 nM

## COC(c1ccc(-c2cnc(Nc3ccnc(-c4cnn(S(=O)(=O)C5CC5)c4)n3)cc2NC2CCC(CO)CC2)nc1)C(F)(F)F (stereo not shown) [Example 261, ((1s,4s)-4-((6′-((2-(1-(Cyclopropylsulfonyl)-1H-pyrazol-4-yl)pyrimidin-4-yl)amino)-5-(2,2,2-trifluoro-1-methoxyethyl)-[2,3′-bipyridin]-4′-yl)amino)cyclohexyl)methanol]
[1]
  IC50: 9.6 nM
[2]
  IC50: 4.1 nM
[3]
  IC50: 10.3 nM
[4]
  IC50: 7.5 nM
[5]
  IC50: 9.2 nM

## COC(c1ccc(-c2cnc(Nc3ccnc(-c4cnn(S(=O)(=O)C5CC5)c4)n3)cc2NC2CCC(CN(C)C)CC2)nc1)C(F)(F)F (stereo not shown) [Example 262, N^6′-(2-(1-(Cyclopropylsulfonyl)-1H-pyrazol-4-yl)pyrimidin-4-yl)-N^4′-((1s,4s)-4-((dimethylamino)methyl)cyclohexyl)-5-(2,2,2-trifluoro-1-methoxyethyl)-[2,3′-bipyridine]-4′,6′-diamine]
[1]
  IC50: 1.9 nM
[2]
  IC50: 0.5 nM
[3]
  IC50: 1.9 nM
[4]
  IC50: 0.9 nM
[5]
  IC50: 2 nM

## C[C@]1(O)CC[C@@H](Nc2cc(Nc3ccnc(-c4cnn(S(=O)(=O)C5CC5)c4)n3)ncc2-c2ccc(CCC(F)(F)F)cn2)CC1 [Example 263, (1s,4s)-4-((6′-((2-(1-(Cyclopropylsulfonyl)-1H-pyrazol-4-yl)pyrimidin-4-yl)amino)-5-(3,3,3-trifluoropropyl)-[2,3′-bipyridin]-4′-yl)amino)-1-methylcyclohexan-1-ol]
[1]
  IC50: 8 nM
[2]
  IC50: 3.4 nM
[3]
  IC50: 23.1 nM
[4]
  IC50: 0.9 nM
[5]
  IC50: 14.1 nM

## CC(O)(c1ccc(-c2cnc(Nc3ccnc(-c4cnn(S(=O)(=O)C5CC5)c4)n3)cc2NC2CCC(F)CC2)nc1)C(F)(F)F (stereo not shown) [Example 265, 2-(6′-((2-(1-(Cyclopropylsulfonyl)-1H-pyrazol-4-yl)pyrimidin-4-yl)amino)-4′-(((1s,4s)-4-fluorocyclohexyl)amino)-[2,3′-bipyridin]-5-yl)-1,1,1-trifluoropropan-2-ol]
[1]
  IC50: 31 nM
[2]
  IC50: 22 nM
[3]
  IC50: 16.9 nM
[4]
  IC50: 85.3 nM
[5]
  IC50: 365 nM

## CC(O)(c1ccc(-c2cnc(Nc3ccnc(-c4cnn(S(=O)(=O)C5CC5)c4)n3)cc2NC2CCC(F)CC2)nc1)C(F)(F)F (stereo not shown) [Example 266, 2-(6′-((2-(1-(Cyclopropylsulfonyl)-1H-pyrazol-4-yl)pyrimidin-4-yl)amino)-4′-((4-fluorocyclohexyl)amino)-[2,3′-bipyridin]-5-yl)-1,1,1-trifluoropropan-2-ol]
[1]
  IC50: 33 nM
[2]
  IC50: 18.6 nM
[3]
  IC50: 12.5 nM
[4]
  IC50: 39.6 nM
[5]
  IC50: 168 nM
